Data from US20240294522A1 (Lead Discovery Center GmbH, priority 2021, published 2024).

Key:
GRK5 = biological target: T1, GRK5 (Homo sapiens, UniProt P34947); assay: Lance Kinase Activity Assay, GRK5; details: biochemical Lance kinase activity assay; class symbols A-F; read-out: GRK5 LANCE Assay (IC-50)
T1 construct: purchased Thermo Scientific
Procedure, shortened: (§1)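 IC50s from sigmoidal dose-response over 0.0025-10 μM compound, with phosphorylated ULight substrate detected by Eu anti-phospho antibody FRET after EDTA quench.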

GRK2 = biological target: T2, GRK2 (Homo sapiens, UniProt P25098); assay: Lance Kinase Activity Assay, GRK2; details: biochemical Lance kinase activity assay; class symbols A-F; read-out: GRK2 LANCE Assay (IC-50)
T2 construct: purchased Thermo Scientific
T2 sequence (P25098 1-689): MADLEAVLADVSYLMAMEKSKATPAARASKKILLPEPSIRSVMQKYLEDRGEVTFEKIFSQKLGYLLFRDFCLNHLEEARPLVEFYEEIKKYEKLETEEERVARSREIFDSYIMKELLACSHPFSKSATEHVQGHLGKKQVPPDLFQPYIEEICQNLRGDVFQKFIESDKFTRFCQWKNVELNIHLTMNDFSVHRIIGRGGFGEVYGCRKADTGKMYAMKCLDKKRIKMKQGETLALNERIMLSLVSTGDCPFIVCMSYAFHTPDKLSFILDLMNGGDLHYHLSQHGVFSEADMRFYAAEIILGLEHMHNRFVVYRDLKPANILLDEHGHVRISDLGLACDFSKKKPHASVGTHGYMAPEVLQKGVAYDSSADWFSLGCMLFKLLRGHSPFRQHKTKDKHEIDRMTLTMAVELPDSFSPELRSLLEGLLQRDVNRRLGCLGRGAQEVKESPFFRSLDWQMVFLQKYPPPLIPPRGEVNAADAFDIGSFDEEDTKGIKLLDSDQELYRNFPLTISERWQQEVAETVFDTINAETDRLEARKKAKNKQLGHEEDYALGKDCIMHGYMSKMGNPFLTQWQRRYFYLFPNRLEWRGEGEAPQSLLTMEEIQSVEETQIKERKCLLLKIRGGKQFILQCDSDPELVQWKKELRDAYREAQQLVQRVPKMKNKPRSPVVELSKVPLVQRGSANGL
Procedure, shortened: as §1

T1 sequence (P34947 whole entry): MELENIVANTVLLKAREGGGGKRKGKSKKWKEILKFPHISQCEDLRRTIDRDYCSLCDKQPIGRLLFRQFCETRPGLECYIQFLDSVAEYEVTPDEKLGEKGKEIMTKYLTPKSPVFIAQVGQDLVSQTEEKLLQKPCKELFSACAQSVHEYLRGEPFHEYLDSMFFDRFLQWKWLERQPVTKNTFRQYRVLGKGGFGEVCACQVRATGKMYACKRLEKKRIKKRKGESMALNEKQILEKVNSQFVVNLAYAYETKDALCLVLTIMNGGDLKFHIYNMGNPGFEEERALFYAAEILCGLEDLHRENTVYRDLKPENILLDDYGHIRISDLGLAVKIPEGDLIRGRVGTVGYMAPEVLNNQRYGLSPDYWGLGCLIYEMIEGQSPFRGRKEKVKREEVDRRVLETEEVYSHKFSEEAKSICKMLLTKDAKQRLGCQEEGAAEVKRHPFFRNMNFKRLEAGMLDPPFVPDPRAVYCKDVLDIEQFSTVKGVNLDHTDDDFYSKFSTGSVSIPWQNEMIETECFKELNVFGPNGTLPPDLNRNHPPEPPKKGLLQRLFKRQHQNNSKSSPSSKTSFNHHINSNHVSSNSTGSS

Compound	IC50 (GRK5) [nM]	IC50 (GRK2) [nM]
COc1ccc([C@@H](C)NC(=O)/C=C/c2c[nH]c3ncc(-c4ccnc(S(C)(=O)=O)c4)cc23)cc1OC [Example 250, (R,E)-N-(1-(3,4-dimethoxyphenyl)ethyl)-3-(5-(2-(methylsulfonyl)pyridin-4-yl)-1H-pyrrolo[2,3-b]pyridin-3-yl)acrylamide]	≤ 50	1000 to 10000
Cc1nn(C)c2ccc([C@@H](C)NC(=O)/C(C#N)=C/c3c[nH]c4ncc(-c5cnn(C)c5)cc34)cc12 [Example 262, (R,E)-2-cyano-N-(1-(1,3-dimethyl-1H-indazol-5-yl)ethyl)-3-(5-(1-methyl-1H-pyrazol-4-yl)-1H-pyrrolo[2,3-b]pyridin-3-yl)acrylamide]	≤ 50	> 10000
COc1ccc([C@@H](C)NC(=O)/C(C#N)=C/c2c[nH]c3ncc(-c4cccnc4)cc23)cc1OC [Example 130]	≤ 50	> 10000
COc1ccc([C@@H](C)NC(=O)/C=C/c2c[nH]c3ncc(-c4cccc(CNC(C)=O)c4)cc23)cc1OC [Example 203, (R,E)-3-(5-(3-(acetamidomethyl)phenyl)-1H-pyrrolo[2,3-b]pyridin-3-yl)-N-(1-(3,4-dimethoxyphenyl)ethyl)acrylamide]	≤ 50	1000 to 10000
COc1ccc([C@@H](C)NC(=O)/C=C/c2c[nH]c3ncc(-c4cnn(CC(C)O)c4)cc23)cc1OC (stereo partly drawn) [Example 214, (E)-N-((R)-1-(3,4-dimethoxyphenyl)ethyl)-3-(5-(1-(2-hydroxypropyl)-1H-pyrazol-4-yl)-1H-pyrrolo[2,3-b]pyridin-3-yl)acrylamide]	≤ 50	1000 to 10000
COc1ccc([C@@H](C)NC(=O)/C=C/c2c[nH]c3nccc(-c4cnn(C)c4)c23)cc1OC [Example 238, (R,E)-N-(1-(3,4-dimethoxyphenyl)ethyl)-3-(4-(1-methyl-1H-pyrazol-4-yl)-1H-pyrrolo[2,3-b]pyridin-3-yl)acrylamide]	100 to 500	> 10000
COc1ccc([C@@H](C)NC(=O)/C(C#N)=C/c2c[nH]c3ncc(-c4ccc(NC(C)=O)cc4)cc23)cc1OC [Example 142]	≤ 50	1000 to 10000
CS(=O)(=O)c1ccccc1CNC(=O)/C(C#N)=C/c1c[nH]c2ncccc12 [Example 39, (E)-2-cyano-N-(2-(methylsulfonyl)benzyl)-3-(1H-pyrrolo[2,3-b]pyridin-3-yl)acrylamide]	100 to 500	1000 to 10000
COc1ccc([C@@H](C)NC(=O)/C(C#N)=C/c2c[nH]c3ncc(-c4cc(F)cc(F)c4)cc23)cc1OC [Example 131]	50 to 100	1000 to 10000
COc1ccc([C@@H](C)NC(=O)/C(C#N)=C/c2c[nH]c3ncccc23)cc1 [Example 19, (R,E)-2-cyano-N-(1-(4-methoxyphenyl)ethyl)-3-(1H-pyrrolo[2,3-b]pyridin-3-yl)acrylamide]	100 to 500	1000 to 10000
COc1ccc([C@@H](C)NC(=O)/C=C/c2c[nH]c3ncc(-c4ccc(OCCN(C)C)cc4)cc23)cc1OC [Example 197, (R,E)-N-(1-(3,4-dimethoxyphenyl)ethyl)-3-(5-(4-(2-(dimethylamino)ethoxy)phenyl)-1H-pyrrolo[2,3-b]pyridin-3-yl)acrylamide]	≤ 50	500 to 1000
COc1ccc([C@@H](C)NC(=O)/C=C/c2c[nH]c3ncc(-c4cccc(N(C)C)c4)cc23)cc1OC [Example 195, (R,E)-N-(1-(3,4-dimethoxyphenyl)ethyl)-3-(5-(3-(dimethylamino)phenyl)-1H-pyrrolo[2,3-b]pyridin-3-yl)acrylamide]	≤ 50	> 10000
COc1ccc([C@@H](C)NC(=O)/C(C#N)=C/c2c[nH]c3nc(Br)ccc23)cc1OC [Example 90, (R,E)-3-(6-bromo-1H-pyrrolo[2,3-b]pyridin-3-yl)-2-cyano-N-(1-(3,4-dimethoxyphenyl)ethyl)acrylamide]	100 to 500	> 10000
CC[S+]([O-])c1cccc(-c2cnc3[nH]cc(/C=C/C(=O)N[C@H](C)c4ccc(OC)c(OC)c4)c3c2)c1 (stereo partly drawn) [Example 191, (E)-N-((R)-1-(3,4-dimethoxyphenyl)ethyl)-3-(5-(3-(ethylsulfinyl)phenyl)-1H-pyrrolo[2,3-b]pyridin-3-yl)acrylamide]	≤ 50	1000 to 10000
COc1ccc([C@@H](C)NC(=O)/C(C#N)=C/c2c[nH]c3ncc(-c4cnn(CCN5CCOCC5)c4)cc23)cc1OC [Example 160]	≤ 50	1000 to 10000
COc1ccc([C@@H](C)NC(=O)/C(C#N)=C/c2c[nH]c3ncc(-c4ccncc4)cc23)cc1OC [Example 143]	≤ 50	1000 to 10000

Compound	IC50 (GRK5) [nM]	IC50 (GRK2) [nM]
C[C@@H](NC(=O)/C(C#N)=C/c1c[nH]c2ncc(-c3ccccc3)cc12)c1ccc(F)cc1 [Example 179]	100 to 500	1000 to 10000
COc1ccc([C@@H](C)NC(=O)/C(C#N)=C/c2c[nH]c3ncc(OC4CCOCC4)cc23)cc1OC [Example 111, (R,E)-2-cyano-N-(1-(3,4-dimethoxyphenyl)ethyl)-3-(5-((tetrahydro-2H-pyran-4-yl)oxy)-1H-pyrrolo[2,3-b]pyridin-3-yl)acrylamide]	≤ 50	1000 to 10000
COc1ccc([C@@H](C)NC(=O)/C(C#N)=C/c2c[nH]c3ncc(-c4cccc(OCCCN(C)C)c4)cc23)cc1OC [Example 133]	1000 to 10000	1000 to 10000
COc1ccc([C@@H](C)NC(=O)/C=C/c2c[nH]c3ncc(-c4cnn(CCN5CCOCC5)c4)cc23)cc1OC [Example 210, (R,E)-N-(1-(3,4-dimethoxyphenyl)ethyl)-3-(5-(1-(2-morpholinoethyl)-1H-pyrazol-4-yl)-1H-pyrrolo[2,3-b]pyridin-3-yl)acrylamide]	≤ 50	1000 to 10000
COc1ccc(-c2cnc3[nH]cc(/C=C(\C#N)C(=O)N[C@H](C)c4ccc(OC)c(OC)c4)c3c2)cc1OC [Example 145]	≤ 50	> 10000
COc1ccc([C@@H](C)NC(=O)/C=C/c2c[nH]c3ncc(-c4cnn(C5COC5)c4)cc23)cc1OC [Example 215, (R,E)-N-(1-(3,4-dimethoxyphenyl)ethyl)-3-(5-(1-(oxetan-3-yl)-1H-pyrazol-4-yl)-1H-pyrrolo[2,3-b]pyridin-3-yl)acrylamide]	≤ 50	1000 to 10000
COc1ccc([C@@H](C)NC(=O)/C=C/c2c[nH]c3ncc(-c4ccc(CN5CCOCC5)cc4)cc23)cc1OC [Example 194]	≤ 50	1000 to 10000
CS(=O)(=O)Nc1ccccc1CNC(=O)/C(C#N)=C/c1c[nH]c2ncccc12 [Example 42, (E)-2-cyano-N-(2-(methylsulfonamido)benzyl)-3-(1H-pyrrolo[2,3-b]pyridin-3-yl)acrylamide]	500 to 1000	1000 to 10000
COc1ccc([C@@H](C)NC(=O)/C=C/c2c[nH]c3ncc(-c4cncc(S(C)(=O)=O)c4)cc23)cc1OC [Example 218, (R,E)-N-(1-(3,4-dimethoxyphenyl)ethyl)-3-(5-(5-(methylsulfonyl)pyridin-3-yl)-1H-pyrrolo[2,3-b]pyridin-3-yl)acrylamide]	≤ 50	> 10000
COc1ccc([C@@H](C)NC(=O)/C=C/c2c[nH]c3ncc(-c4cc(F)cc(F)c4)cc23)cc1OC [Example 115, (R,E)-3-(5-(3,5-difluorophenyl)-1H-pyrrolo[2,3-b]pyridin-3-yl)-N-(1-(3,4-dimethoxyphenyl)ethyl)acrylamide]	100 to 500	> 10000
CN(C)c1ccc(CNC(=O)/C(C#N)=C/c2c[nH]c3ncccc23)cc1 [Example 24, (E)-2-cyano-N-(4-(dimethylamino)benzyl)-3-(1H-pyrrolo[2,3-b]pyridin-3-yl)acrylamide]	1000 to 10000	> 10000
COc1ccc([C@@H](C)NC(=O)/C=C/c2c[nH]c3ncc(-c4cccc(CCN(C)C)c4)cc23)cc1OC [Example 192]	≤ 50	1000 to 10000
COc1ccc([C@@H](C)NC(=O)/C=C/c2c[nH]c3ncc(-c4ccc(N5CCN(C(C)=O)CC5)cc4)cc23)cc1OC [Example 182]	≤ 50	100 to 500
COc1ccc([C@@H](C)NC(=O)/C=C/c2c[nH]c3ncc(-c4cccc(OCCCN(C)C)c4)cc23)cc1OC [Example 188]	≤ 50	500 to 1000
Cc1ccc(Br)cc1CNC(=O)/C(C#N)=C/c1c[nH]c2ncccc12 [Example 23, (E)-N-(5-bromo-2-methylbenzyl)-2-cyano-3-(1H-pyrrolo[2,3-b]pyridin-3-yl)acrylamide]	1000 to 10000	> 10000
COc1ccc([C@@H](C)NC(=O)/C=C/c2c[nH]c3ncc(-c4cn(C)nc4C)cc23)cc1OC [Example 212, (R,E)-N-(1-(3,4-dimethoxyphenyl)ethyl)-3-(5-(1,3-dimethyl-1H-pyrazol-4-yl)-1H-pyrrolo[2,3-b]pyridin-3-yl)acrylamide]	≤ 50	1000 to 10000
